These results are taken from patent publication US7262185B2, “Benzazepine derivative, process for producing the same, and use” (Takeda Chemical Industries Ltd., priority 2001, dated 2007).

Molecules are shown by their SMILES.

By melting point is commonly meant the temperature, or range, at which the solid turns liquid.

The molecule `CCCCOCCOc1ccc(-c2ccc3c(c2)C=C(C(=O)Nc2ccc([C@H](O)c4cccc[n+]4[O-])cc2)CCN3C(=O)C(F)(F)F)cc1` [Compound 80, 7-[4-(2-butoxyethoxy)phenyl]-N-[4-[(S)-hydroxy(1-oxidopyridin-2-yl)methyl]phenyl]-2,3-dihydro-1-trifluoroacetyl-1H-1-benzazepine-4-carboxamide] showed a melting point of 107 to 110 °C. The result for `CCCCOCCOc1ccc(-c2ccc3c(c2)C=C(C(=O)Nc2ccc(CSc4nnc(C)o4)cc2)CCN3CC(C)C)cc1` [Compound 116, 7-[4-(2-butoxyethoxy)phenyl]-N-[4-(5-methyl-1,3,4-oxadiazol-2-ylthiomethyl)phenyl]-1-isobutyl-2,3-dihydro-1H-1-benzazepine-4-carboxamide] reads 107 to 109 °C; that for `CCCCOCCOc1ccc(-c2ccc3c(c2)C=C(C(=O)Nc2ccc(C(O)c4cc(C)cc[n+]4[O-])c(OCC)c2)CCN3CC(C)C)cc1` (stereo not shown) [Compound 12, 7-[4-(2-butoxyethoxy)phenyl]-N-[3-ethoxy-4-[hydroxy(4-methyl-1-oxidopyridin-2-yl)methyl]phenyl]-1-isobutyl-2,3-dihydro-1H-1-benzazepine-4-carboxamide], 108 to 110 °C; that for `CCCCOCCOc1ccc(-c2ccc3c(c2)C=C(C(=O)Nc2ccc(N(C)Cc4nncn4CCC)cc2)CCN3CC(C)C)cc1` [Compound 150, 7-[4-(2-butoxyethoxy)phenyl]-1-isobutyl-N-[4-[methyl(4-propyl-4H-1,2,4-triazol-3-ylmethyl)amino]phenyl]-2,3-dihydro-1H-benzazepine-4-carboxamide], 134 to 136 °C. The same measure for `CCCCOCCOc1ccc(-c2ccc3c(c2)C=C(C(=O)Nc2ccc([S+]([O-])Cc4ncon4)cc2)CCN3CC(C)C)cc1` (stereo not shown) [Compound 129, 7-[4-(2-butoxyethoxy)phenyl]-1-isobutyl-N-[4-(1,2,4-oxadiazol-3-ylmethylsulfinyl)phenyl]-2,3-dihydro-1H-benzazepine-4-carboxamide]: 142 to 144 °C; for `CCCCOCCOc1ccc(-c2ccc3c(c2)C=C(C(=O)Nc2ccc(S(=O)(=O)Cc4cncn4CC(N)=O)cc2)CCN3CC(C)C)cc1` [Compound 431, N-[4-[[[1-(2-amino-2-oxoethyl)-1H-imidazol-5-yl]methyl]sulfonyl]phenyl]-7-[4-(2-butoxyethoxy)phenyl]-1-isobutyl-2,3-dihydro-1H-1-benzazepine-4-carboxamide]: 229 to 231 °C. Turning to `CCCCOCCOc1ccc(-c2ccc3c(c2)C=C(C(=O)Nc2ccc(CSc4nncs4)cc2)CCN3CC(C)C)cc1` [Compound 115, 7-[4-(2-butoxyethoxy)phenyl]-N-[4-(1,3,4-thiadiazol-2-ylthiomethyl)phenyl]-1-isobutyl-2,3-dihydro-1H-1-benzazepine-4-carboxamide], the melting point is 77 to 79 °C.

Consider `CCCCOCCOc1ccc(-c2ccc3c(c2)C=C(C(=O)Nc2ccc(C(O)c4cccc(C)[n+]4[O-])cc2)CCN3C(=O)C(F)(F)F)cc1` (stereo not shown) [Compound 96, 7-[4-(2-butoxyethoxy)phenyl]-N-[4-[hydroxy(6-methyl-1-oxidopyridin-2-yl)methyl]phenyl]-1-trifluoroacetyl-2,3-dihydro-1H-1-benzazepine-4-carboxamide], for which the melting point lay within 170 to 173 °C.

In the case of `CCCCOCCOc1ccc(-c2ccc3c(c2)C=C(C(=O)Nc2ccc([S+]([O-])Cc4ncn(C)n4)cc2)CCN3CC(C)C)cc1` (stereo not shown) [Compound 126, 7-[4-(2-butoxyethoxy)phenyl]-1-isobutyl-N-[4-(1-methyl-1H-1,2,4-triazol-3-ylmethylsulfinyl)phenyl]-2,3-dihydro-1H-benzazepine-4-carboxamide], the melting point is 112 to 114 °C. The result for `CCCCOCCOc1ccc(-c2ccc3c(c2)C=C(C(=O)Nc2ccc(/C(Cc4nccn4CCC)=N/OC)cc2)CCN3CC(C)C)cc1` [Compound 448, 7-[4-(2-butoxyethoxy)phenyl]-1-isobutyl-N-[4-((1E)-N-methoxy-2-(1-propylimidazol-2-yl)ethanimidoyl)phenyl]-2,3-dihydro-1H-1-benzazepine-4-carboxamide] reads 159 to 161 °C; that for `CCCCOCCOc1ccc(-c2ccc3c(c2)C=C(C(=O)Nc2ccc([C@@H](O)c4ccccn4)cc2)CCN3C=O)cc1` [Compound 76, 7-[4-(2-butoxyethoxy)phenyl]-1-formyl-N-[4-[(R)-hydroxy(2-pyridyl)methyl]phenyl]-2,3-dihydro-1H-1-benzazepine-4-carboxamide], 110 to 112 °C. In turn, `CCCCOCCOc1ccc(-c2ccc3c(c2)C=C(C(=O)Nc2ccc(C/C(=N/O)c4nccn4CCC)cc2)CCN3CC(C)C)cc1` [Compound 453, 7-[4-(2-butoxyethoxy)phenyl]-N-[4-((2Z)-2-(hydroxyimino)-2-(1-propylimidazol-2-yl)ethyl)phenyl]-1-isobutyl-2,3-dihydro-1H-1-benzazepine-4-carboxamide] came in with a melting point of 187.5 to 189.5 °C. The same measure for `CCCCOCCOc1ccc(-c2ccc3c(c2)C=C(C(=O)Nc2ccc(SCc4nncn4CC(C)C)cc2)CCN3CCC)cc1` [Compound 32, 7-[4-(2-butoxyethoxy)phenyl]-N-[4-[(4-isobutyl-4H-1,2,4-triazol-3-yl)methylthio]phenyl]-1-propyl-2,3-dihydro-1H-1-benzazepine-4-carboxamide]: 130 to 132 °C.

The molecule `CCCCOCCOc1ccc(-c2ccc3c(c2)C=C(C(=O)Nc2ccc(C(O)c4c(OCCC)ccc[n+]4[O-])cc2)CCN3C(=O)C(F)(F)F)cc1` (stereo not shown) [Compound 112, 7-[4-(2-butoxyethoxy)phenyl]-N-[4-[hydroxy(1-oxido-3-propoxypyridin-2-yl)methyl]phenyl]-1-trifluoroacetyl-2,3-dihydro-1H-1-benzazepine-4-carboxamide] registered a melting point of 144 to 146 °C.

In turn, `CCCCOCCOc1ccc(-c2ccc3c(c2)C=C(C(=O)Nc2ccc(C(O)c4cccc[n+]4[O-])c(OCC(F)(F)F)c2)CCN3CC(C)C)cc1` (stereo not shown) [Compound 23, 7-[4-(2-butoxyethoxy)phenyl]-1-isobutyl-N-[4-[hydroxy(1-oxidopyridin-2-yl)methyl]-3-(2,2,2-trifluoroethoxy)phenyl]-2,3-dihydro-1H-1-benzazepine-4-carboxamide] showed a melting point of 118 to 123 °C.

As for `CCCCOCCOc1ccc(-c2ccc3c(c2)C=C(C(=O)Nc2ccc([S+]([O-])Cc4nnc(C)c(C)n4)cc2)CCN3CC(C)C)cc1` (stereo not shown) [Compound 37, 7-[4-(2-butoxyethoxy)phenyl]-N-[4-[(5,6-dimethyl-1,2,4-triazin-3-yl)methylsulfinyl]phenyl]-1-isobutyl-2,3-dihydro-1H-1-benzazepine-4-carboxamide], the melting point was 178 to 183 °C (dec.). `CCCCOCCOc1ccc(-c2ccc3c(c2)C=C(C(=O)Nc2ccc(/C(Cc4nccn4CCC)=N/O)cc2)CCN3CC(C)C)cc1` [Compound 450, 7-[4-(2-butoxyethoxy)phenyl]-N-[4-((1E)-N-hydroxy-2-(1-propylimidazol-2-yl)ethaneimidoyl)phenyl]-1-isobutyl-2,3-dihydro-1H-1-benzazepine-4-carboxamide] returned a melting point of 153.5 to 154.5 °C.

`CCCCOCCOc1ccc(-c2ccc3c(c2)C=C(C(=O)Nc2ccc([S+]([O-])Cc4ncnn4C)cc2)CCN3CC(C)C)cc1` (stereo not shown) [Compound 124, 7-[4-(2-butoxyethoxy)phenyl]-N-[4-(1-methyl-1H-1,2,4-triazol-5-ylmethylsulfinyl)phenyl]-1-isobutyl-2,3-dihydro-1H-1-benzazepine-4-carboxamide] displayed a melting point of 135 to 138 °C.

For `CCCCOCCOc1ccc(-c2ccc3c(c2)C=C(C(=O)Nc2ccc([C@H](O)c4cccc[n+]4[O-])cc2)CCN3CCC)cc1` [Compound 83, 7-[4-(2-butoxyethoxy)phenyl]-N-[4-[(S)-hydroxy(1-oxidopyridin-2-yl)methyl]phenyl]-1-propyl-2,3-dihydro-1H-1-benzazepine-4-carboxamide], the melting point fell in the range of 87 to 89 °C. In the case of `CCCCOCCOc1ccc(-c2ccc3c(c2)C=C(C(=O)Nc2ccc([S+]([O-])Cc4nncn4C)cc2)CCN3CCC)cc1` (stereo not shown) [Compound 133, 7-[4-(2-butoxyethoxy)phenyl]-N-[4-(4-methyl-4H-1,2,4-triazol-3-ylmethylsulfinyl)phenyl]-1-propyl-2,3-dihydro-1H-1-benzazepine-4-carboxamide], the melting point fell in the range of 101 to 103 °C. Regarding `CCCCOCCOc1ccc(-c2ccc3c(c2)C=C(C(=O)Nc2ccc(S(=O)(=O)Cc4ncn(C)n4)cc2)CCN3CC(C)C)cc1` [Compound 127, 7-[4-(2-butoxyethoxy)phenyl]-1-isobutyl-N-[4-(1-methyl-1H-1,2,4-triazol-3-ylmethylsulfonyl)phenyl]-2,3-dihydro-1H-benzazepine-4-carboxamide], the melting point lay within 205 to 208 °C. The same measure for `CCCCOCCOc1ccc(-c2ccc3c(c2)C=C(C(=O)Nc2ccc(C(O)c4cccc[n+]4[O-])c(OC)c2)CCN3)cc1` (stereo not shown) [Compound 3, 7-[4-(2-butoxyethoxy)phenyl]-N-[4-[hydroxy(1-oxidopyridin-2-yl)methyl]-3-methoxyphenyl]-2,3-dihydro-1H-1-benzazepine-4-carboxamide]: 116 to 118 °C. The same measure for `CCCCOCCOc1ccc(-c2ccc3c(c2)C=C(C(=O)Nc2ccc(CCCn4cnnc4)cc2)CCN3CCC)cc1` [Compound 64, 7-[4-(2-butoxyethoxy)phenyl]-1-propyl-N-[4-[3-(4H-1,2,4-triazol-4-yl)propyl]phenyl]-2,3-dihydro-1H-1-benzazepine-4-carboxamide]: 191 to 194 °C; for `CCCCOCCOc1ccc(-c2ccc3c(c2)C=C(C(=O)Nc2ccc([S+]([O-])Cc4cncn4CC(N)=O)cc2)CCN3CC(C)C)cc1` (stereo not shown) [Compound 430, N-[4-[[[1-(2-amino-2-oxoethyl)-1H-imidazol-5-yl]methyl]sulfinyl]phenyl]-7-[4-(2-butoxyethoxy)phenyl]-1-isobutyl-2,3-dihydro-1H-1-benzazepine-4-carboxamide]: 123 to 125 °C. In the case of `CCCCOCCOc1ccc(-c2ccc3c(c2)C=C(C(=O)Nc2ccc(SCc4nncn4CCC)c(C(F)(F)F)c2)CCN3CC(C)C)cc1` [Compound 42, 7-[4-(2-butoxyethoxy)phenyl]-1-isobutyl-N-[3-trifluoromethyl-4-[(4-propyl-4H-1,2,4-triazol-3-yl)methylthio]phenyl]-2,3-dihydro-1H-1-benzazepine-4-carboxamide], the melting point is 131 to 133 °C.
